Measurements from PMC11091072, “Targeting bacterial nickel transport with aspergillomarasmine A suppresses virulence-associated Ni-dependent enzymes” (Nature Communications, 2024).
Several values for one entry are separate records, joined by “and”; a condition that tells them apart may be missing. Equal values may be shown once. Read-outs that look alike come from different tables or passages of the source.

Columns and labels:
[1] = system: K. pneumoniae urease activity (whole cell); assay: microbe, parasite or virus in culture; format: cell-based, Klebsiella pneumoniae ATCC 33495; conditions: artificial urine; for K. pneumoniae urease-dependent pH change (pH): 37 °C
[2] = system: S. aureus urease activity (whole cell); format: cell-based, Staphylococcus aureus; conditions: artificial urine, 24 h; for Staphylococcus aureus urease-dependent pH change (pH): 37 °C
[3] = system: struvite crystallization in K. pneumoniae cultures; assay: Struvite crystal nucleation in artificial urine cultures; format: cell-based, Klebsiella pneumoniae
From the text: A The metal complexed structure, selectivity, and affinity of AMA. The constituents of AMA are labeled L-aspartate (L-Asp) and 2,3-diaminopropionic acid (APA). B Dose-response urease inhibition assays in K. pneumoniae. […] C Dose-response effect of AMA and Zn-AMA on the nucleation of struvite crystals in K. pneumoniae cultures grown in artificial urine. Crystals were examined microscopically in 96-well plates and visually quantified. […] The data represent the representative mean of two replicates. D Quantification of planktonic growth and crystal violet-stained biofilms of K. pneumoniae grown in artificial urine and varying concentrations of Zn-AMA. […] Data represent mean ± s.d. of four technical replicates. E ICP-MS quantification of cellular ^60Ni and ^66Zn content in K. pneumoniae untreated or treated with 200 μM AMA, or Zn-AMA. […] Whole-cell hydrogenase assays were performed by adding benzyl viologen (BV) at a final concentration of 1 mg/mL and monitoring its reduction at an absorbance of 630 nm. Data represent the mean of two technical replicates.
FIG S5 Microscopic detection of struvite crystals grown in artificial urine cultures of K. pneumoniae. Top row, the concentration-dependent effect of AMA on struvite formation. Bottom row, the concentration-dependent effect of Zn-AMA on struvite formation.
Bacteria were grown in 96 well flat-bottom plates for 24h at 37 °C. Brightfield micrographs were taken with a BioTek Cytation cell imaging reader at 4x magnification. Four images were taken per well and were digitally stitched to generate whole-well images. […]

[4] = system: [NiFe]-hydrogenase (Hyd-3); assay: Whole-cell [NiFe] hydrogenase assay (benzyl viologen reduction); format: cell-based, Klebsiella pneumoniae
From the text: We reasoned that disruption of Ni^2+ uptake and homeostasis should also perturb the activity of other Ni-dependent enzymes. To examine this possibility, we tested the effects of free AMA and Zn-AMA on Ni-dependent hydrogen metabolism in bacteria. […] K. pneumoniae produces a single [NiFe]-hydrogenase (Hyd-3) as part of the H2-evolving formate hydrogenlyase (FHL) complex and is encoded by the hyc operon (Fig S8)[21]. […] To measure [NiFe]-hydrogenase-catalyzed H2 […], benzyl viologen was used as an artificial electron acceptor, as previously described. Although Hyd-3 is involved in the evolution of H2, previous work in E. coli has shown that it is responsible for 90% of the hydrogen-dependent benzyl viologen reduction in crude extracts and whole-cell assays[41]–[44].
The whole-cell hydrogenase activity in K. pneumoniae was based on a modified method described by Lacasse et al.[41] […] The cell suspension was diluted 1/100 in LB supplemented with 0.8% glucose, 10 mM MgCl2, and 10 mM potassium phosphate, pH 7.2. […] Following an 18-hour incubation, whole-cell [NiFe] hydrogenase activity was monitored by adding benzyl viologen (1 mg/mL) to each well, followed by continuous monitoring of the change in absorbance at 630 nm using a BioTek Synergy H1 microplate reader in an anaerobic glove box.

urease = target: T1, urease (Klebsiella pneumoniae subsp. pneumoniae, UniProt A6TE40+A6TE41+A6TE42); assay: Urease activity in cell-free extracts (NH3 release, indophenol-hypochlorite); format: biochemical
T1 construct: endogenous in cells; host or cells: Klebsiella pneumoniae (ATCC 33495), sonicated and cleared lysate
T1 sequence (A6TE41 whole entry): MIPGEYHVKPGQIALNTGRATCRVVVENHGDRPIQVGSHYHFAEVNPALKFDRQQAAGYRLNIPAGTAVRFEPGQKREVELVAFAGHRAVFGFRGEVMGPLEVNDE
T1 sequence (A6TE40 whole entry): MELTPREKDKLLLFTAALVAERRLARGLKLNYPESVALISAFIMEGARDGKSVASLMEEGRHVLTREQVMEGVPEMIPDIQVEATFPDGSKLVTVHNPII
T1 sequence (A6TE42 whole entry): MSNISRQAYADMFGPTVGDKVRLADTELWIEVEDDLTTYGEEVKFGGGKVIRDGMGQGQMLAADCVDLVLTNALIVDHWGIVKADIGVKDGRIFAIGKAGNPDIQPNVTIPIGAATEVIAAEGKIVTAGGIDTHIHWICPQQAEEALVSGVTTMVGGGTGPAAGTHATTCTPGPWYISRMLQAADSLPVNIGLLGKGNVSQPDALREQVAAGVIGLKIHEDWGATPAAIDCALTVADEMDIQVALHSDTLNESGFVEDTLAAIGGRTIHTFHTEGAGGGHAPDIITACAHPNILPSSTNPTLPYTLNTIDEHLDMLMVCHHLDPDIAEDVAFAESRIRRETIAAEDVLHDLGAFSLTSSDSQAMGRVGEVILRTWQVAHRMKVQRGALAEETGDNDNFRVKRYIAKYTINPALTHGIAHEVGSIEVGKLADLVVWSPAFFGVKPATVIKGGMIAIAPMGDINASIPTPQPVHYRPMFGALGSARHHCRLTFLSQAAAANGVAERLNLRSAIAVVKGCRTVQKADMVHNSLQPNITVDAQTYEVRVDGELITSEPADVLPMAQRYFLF
Experimental: The cells were subsequently lysed by sonication, and cell debris was removed with centrifugation (20,000 × g, 10 min). […] Liberated NH3 was quantified using the indophenol-hypocholorite reaction as previously described. The total amount of protein was quantified by Bradford assay using bovine serum albumin as standard. Each assay was performed in duplicate wells.
FIG S7 Evaluation of Zn-AMA as a direct inhibitor of urease. A) Checkerboard analysis of Zn-AMA and AHA on urease activity of K. […]
Dose- […]
response curves of fluorofamide, Zn-AMA, and AMA inhibiting the urease-catalyzed release of NH3 quantified with indophenol hypochlorite. The rates of NH3 production were measured over 20 min and were normalized to total protein concentration. Experiments were performed in duplicate. Individual replicates are shown as colored circles.

S. aureus = format: cell-based, Staphylococcus aureus; conditions: 200 μM, 24 h

N[C@@H](CN[C@@H](CN[C@@H](CC(=O)O)C(=O)O)C(=O)O)C(=O)O.[Zn+2] [Zn-AMA]
K. pneumoniae urease-dependent pH change (pH) ([1]; 0.19 μM, 24 h): 8.14 and 8.10
K. pneumoniae urease-dependent pH change (pH) ([1]; 0.39 μM, 24 h): 8.08 and 8.00
K. pneumoniae urease-dependent pH change (pH) ([1]; 0.78 μM, 24 h): 7.84 and 7.81
K. pneumoniae urease-dependent pH change (pH) ([1]; 1.56 μM, 24 h): 7.60 and 7.55
K. pneumoniae urease-dependent pH change (pH) ([1]; 3.12 μM, 24 h): 7.41 and 7.27
K. pneumoniae urease-dependent pH change (pH) ([1]; 6.25 μM, 24 h): 7.11
K. pneumoniae urease-dependent pH change (pH) ([1]; 12.5 μM, 24 h): 6.87 and 6.85
K. pneumoniae urease-dependent pH change (pH) ([1]; 25 μM, 24 h): 6.76 and 6.71
K. pneumoniae urease-dependent pH change (pH) ([1]; 50 μM, 24 h): 6.66 and 6.60
K. pneumoniae urease-dependent pH change (pH) ([1]; 100 μM, 24 h): 6.65 and 6.54
K. pneumoniae urease-dependent pH change (pH) ([1]; 200 μM, 24 h): 6.80 and 6.56
concentration that significantly suppressed urease activity ([1]; K. pneumoniae, 24 h): 50 µM
EC50 ([1]; Klebsiella pneumoniae, K. pneumoniae, read-out: EC50, half-maximal effective concentration required to suppress urease-dependent pH change): 2.5 ± 0.4 µM
Staphylococcus aureus urease-dependent pH change (pH) ([2]; 0.19 μM): 7.24 and 7.25
Staphylococcus aureus urease-dependent pH change (pH) ([2]; 0.39 μM): 7.28 and 7.12
Staphylococcus aureus urease-dependent pH change (pH) ([2]; 0.78 μM): 6.95 and 7.00
Staphylococcus aureus urease-dependent pH change (pH) ([2]; 1.56 μM): 6.76 and 6.81
Staphylococcus aureus urease-dependent pH change (pH) ([2]; 3.12 μM): 6.56 and 6.59
Staphylococcus aureus urease-dependent pH change (pH) ([2]; 6.25 μM): 6.45 and 6.49
Staphylococcus aureus urease-dependent pH change (pH) ([2]; 12.5 μM): 6.41 and 6.45
Staphylococcus aureus urease-dependent pH change (pH) ([2]; 25 μM): 6.38 and 6.40
Staphylococcus aureus urease-dependent pH change (pH) ([2]; 50 μM): 6.39 and 6.40
Staphylococcus aureus urease-dependent pH change (pH) ([2]; 100 μM): 6.37 and 6.40
Staphylococcus aureus urease-dependent pH change (pH) ([2]; 200 μM): 6.41 and 6.39
effect on urease activity ([2]; S. aureus): inhibited urease activity similarly
Struvite crystal quantification (count) ([3]; 3.12 μM): 25 and 43
Struvite crystal quantification (count) ([3]; 6.25 μM): 42 and 62
Struvite crystal quantification (count) ([3]; 12 μM): 48 and 82
Struvite crystal quantification (count) ([3]; 50 μM): 0
Struvite crystal quantification (count) ([3]; 100 μM): 0
Struvite crystal quantification (count) ([3]; 200 μM): 0
effect on struvite crystals ([3]; K. pneumoniae, artificial urine): robustly prevented the appearance of struvite crystals
Benzyl viologen hydrogenase assay (activity) ([4]; 1.5625 μM): 9.43 and 9.72
Benzyl viologen hydrogenase assay (activity) ([4]; 3.125 μM): 9.23 and 9.47
Benzyl viologen hydrogenase assay (activity) ([4]; 6.25 μM): 8.98 and 9.82
Benzyl viologen hydrogenase assay (activity) ([4]; 12.5 μM): 9.03 and 8.64
Benzyl viologen hydrogenase assay (activity) ([4]; 25 μM): 7.51 and 6.87
Benzyl viologen hydrogenase assay (activity) ([4]; 50 μM): 5.01 and 4.71
Benzyl viologen hydrogenase assay (activity) ([4]; 100 μM): 2.11
Benzyl viologen hydrogenase assay (activity) ([4]; 200 μM): 0.69 and 0.39
EC50 ([4]; read-out: EC50, Hyd-3 [NiFe]-hydrogenase inhibition, LB-glucose, anaerobic, whole cell, benzyl viologen): 50.8 ± 4.4 µM
Specific activity (cell-free indophenol urease assay) (urease; Zn-AMA 0.007813 mM): 45.30 nmol/min/mg and 43.25 nmol/min/mg
Specific activity (cell-free indophenol urease assay) (urease; Zn-AMA 0.015625 mM): 43.59 nmol/min/mg and 42.05 nmol/min/mg
Specific activity (cell-free indophenol urease assay) (urease; Zn-AMA 0.03125 mM): 42.91 nmol/min/mg and 40.51 nmol/min/mg
Specific activity (cell-free indophenol urease assay) (urease; Zn-AMA 0.0625 mM): 42.56 nmol/min/mg and 39.66 nmol/min/mg
Specific activity (cell-free indophenol urease assay) (urease; Zn-AMA 0.125 mM): 42.39 nmol/min/mg and 39.32 nmol/min/mg
Specific activity (cell-free indophenol urease assay) (urease; Zn-AMA 0.25 mM): 39.32 nmol/min/mg and 37.78 nmol/min/mg
Specific activity (cell-free indophenol urease assay) (urease; Zn-AMA 0.5 mM): 36.07 nmol/min/mg and 34.19 nmol/min/mg
Specific activity (cell-free indophenol urease assay) (urease; Zn-AMA 1 mM): 31.28 nmol/min/mg and 28.03 nmol/min/mg
direct inhibition of urease (urease; cell-free extract): excluded the direct inhibition of urease
bacterial viability (spot dilutions) (S. aureus): not lethal to bacteria
